According to US7943577B2, “Alpha-fetoprotein peptides and uses thereof” (Albany Medical College, priority 2001, dated 2011):
“Also recorded” adds a separate entry of the source. Square brackets hold non-standard residues; d marks the D form. Ends that are not written are not given here. Hyp = O=C(O)[C@@H]1C[C@@H](O)CN1

Assays:
immature mouse uterus = experiment: Immature mouse uterine growth assay; format: in vivo; conditions: for uterotrophic effect of agent alone: peptide even at a dose of 10 μg/mouse, FIG. 13a; for inhibition of the uterotrophic effect of estradiol: Pep 1 μg i.p. one hour before E2 0.5 μg i.p.; for inhibition of the uterotrophic effect of estradiol / inhibition of the uterotrophic effect of tamoxifen: FIG. 13b; for inhibition of the uterotrophic effect of tamoxifen: Pep 1 μg i.p. one hour before Tam 1.0 μg i.p.; for biological activity of gel filtration fraction of aged peptide: 1 μg i.p.
Description: Immature Mouse Uterine Growth Assay.
Differences between groups were evaluated, employing the non-parametric Wilcoxon Sum of Ranks test (one-sided).

[1] = system: MCF-7 human breast cancer xenografts; experiment: Human breast cancer xenograft assay, MCF-7; format: in vivo; conditions: for tumor volumes versus E2 alone group (Wilcoxon ranks-sum test): MCF-7, day 30 (FIG. 7: 20 days and 30 days) after tumor implantation, p<0.05; for growth (tumor volume) of MCF-7 xenografts in E2-supplemented SCID mice: peptide 1 μg i.p. twice a day, tamoxifen 50 μg i.p. once a day, 30-day observation
Description: Human Breast Cancer Xenograft Assay. A bioassay for anti-breast cancer activity was performed according to Bennett et al. (23;24). Confluent MCF-7 human breast cancer cells were trypsinized into suspension and pelleted by centrifugation at 200×g. The pellet was then solidified into a fibrin clot by exposing it to 10 μl of fibrinogen (50 mg/ml) and 10 μl of thrombin (50 units/ml). The solid mass of MCF-7 cells was then cut into pieces 1.5 mm in diameter. A tumor segment of ˜1.5 mm in diameter was implanted under the kidney capsule of an immunodeficient ICR-SCID male mouse (Taconic Farms) that weighed about 25 g. Estrogen supplementation was accomplished by s.c. implantation of a silastic tubing capsule containing solid E2 inserted on the day of tumor implantation. Peptide was injected i.p. every twelve hours at a dose of 1 μg per mouse. Tumor growth was monitored during survival laparotomy at 10 day intervals by measurement of the diameters of the short (d) and long axes (D) of each tumor, using a dissecting microscope equipped with an ocular micrometer. Tumor volumes were calculated using the formula (π/6) (d)^2D, assuming the tumor shape to be an ellipsoid of revolution around its long axis (D). There were five to seven replicate mice included in each treatment group. Mean tumor volume±standard error in each group was calculated for display of growth curves. Significance of differences between groups were tested using the one-sided Wilcoxon Sum of Ranks Test.

[2] = system: MCF-7/Tam human breast cancer xenografts; experiment: Human breast cancer xenograft assay, tamoxifen-resistant MCF-7 subline; format: in vivo; conditions: for growth (tumor volume) of tamoxifen-resistant MCF-7 subline xenografts in E2-supplemented SCID mice: peptide 1 μg i.p. twice a day, tamoxifen 50 μg i.p. once a day, 30-day observation
Description: (§1) Cell Lines. T47D and MDA-231 human breast cancer cell lines were purchased from the American Type Culture Collection (Manassas, Va.). Growth medium for T47D cells consisted of RPMI 1640 (Life Technologies, Germantown, Md.) supplemented with 10% fetal bovine serum (Life Technologies) and 8 μg/ml bovine insulin (Sigma, St. Louis, Mo.). […] The MCF-7 cell line was obtained from Dr. Alberto C. Baldi, Institute of Experimental Biology and Medicine, Buenos Aires, Argentina, and was maintained as previously described by Gierthy et al. (1991). […] Human Breast Cancer Xenograft Assay. A bioassay for anti-breast cancer activity was performed according to Bennett et al. (23;24). […] The pellet was then solidified into a fibrin clot by exposing it to 10 μl of fibrinogen (50 mg/ml) and 10 μl of thrombin (50 units/ml). The solid mass of MCF-7 cells was then cut into pieces 1.5 mm in diameter. A tumor segment of ˜1.5 mm in diameter was implanted under the kidney capsule of an immunodeficient ICR-SCID male mouse (Taconic Farms) that weighed about 25 g. […] Peptide was injected i.p. every twelve hours at a dose of 1 μg per mouse. Tumor growth was monitored during survival laparotomy at 10 day intervals by measurement of the diameters of the short (d) and long axes (D) of each tumor, using a dissecting microscope equipped with an ocular micrometer. […] There were five to seven replicate mice included in each treatment group. Mean tumor volume±standard error in each group was calculated for display of growth curves. Significance of differences between groups were tested using the one-sided Wilcoxon Sum of Ranks Test.

[3] = system: T47D human breast cancer xenografts; experiment: Human breast cancer xenograft assay, T47D; format: in vivo; conditions: for growth (tumor volume) of T47D xenografts in E2-supplemented SCID mice: peptide 1 μg i.p. twice a day, 30-day observation
Description: as §1

[4] = system: MDA-MB-231 human breast cancer xenografts; experiment: Human breast cancer xenograft assay, MDA-MB-231; format: in vivo; conditions: for growth (tumor volume) of ER− MDA-MB-231 xenografts: peptide 1 μg i.p. twice a day, tamoxifen 50 μg i.p. once a day, 30-day observation
Description: as §1

[5] = in vivo; cited from earlier work
[6] = system: MCF-7 breast cancer cells; conditions: ERα-positive breast cancer (MCF-7) cells; Background of Example IV; cited from earlier work
[7] = system: human breast cancer lines; conditions: DeFreest et al., J Pept Res 63:409-419, 2004; cited from earlier work
[8] = target: T1, estrogen receptor (rabbit uterine cytosol) (Oryctolagus cuniculus, UniProt G1SML6); experiment: Assessment of estrogen receptor antagonism ([3H]estradiol binding)
T1 sequence (G1SML6 1-598): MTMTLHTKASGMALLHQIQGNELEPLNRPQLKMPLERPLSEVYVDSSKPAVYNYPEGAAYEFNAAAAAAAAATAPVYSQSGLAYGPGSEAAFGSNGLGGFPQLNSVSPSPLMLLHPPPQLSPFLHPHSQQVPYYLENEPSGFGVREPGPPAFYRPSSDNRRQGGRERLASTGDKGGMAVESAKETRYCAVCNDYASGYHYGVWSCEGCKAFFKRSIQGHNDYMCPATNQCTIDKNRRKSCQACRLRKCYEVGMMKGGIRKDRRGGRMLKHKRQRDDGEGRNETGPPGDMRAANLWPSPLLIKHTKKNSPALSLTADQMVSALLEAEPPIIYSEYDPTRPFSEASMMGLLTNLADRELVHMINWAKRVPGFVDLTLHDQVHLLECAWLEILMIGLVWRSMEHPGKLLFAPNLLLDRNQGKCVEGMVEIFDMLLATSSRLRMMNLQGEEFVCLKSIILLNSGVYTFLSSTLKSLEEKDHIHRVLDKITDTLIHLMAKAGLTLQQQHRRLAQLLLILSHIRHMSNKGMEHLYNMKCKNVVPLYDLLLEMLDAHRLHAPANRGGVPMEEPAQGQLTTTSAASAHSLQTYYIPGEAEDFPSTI
Description: Assessment of Estrogen Receptor Antagonism. Commercially obtained rabbit uteri (Pel-Freez Biological, Rogers, A R) were used as a source of estrogen receptor. Uteri were pulverized in a stainless steel impact mortar under liquid nitrogen and homogenized (20% w/v) in assay buffer (10 mM Tris (pH 7.4), 1.5 mM EDTA, 10% glycerol, 10 mM monothioglycerol, and 10 mM sodium molybdate] on ice. Centrifugation (50,000×g) for 1 h yielded a supernatant containing cytosol, which was adjusted with assay buffer to 2.5 mg protein/ml. All incubations were carried out in triplicate, each containing 100 μl of cytosol, 20 μl of […] 6,7-[3H]estradiol (50 Ci/mmol; DuPont Pharmaceuticals Company, Wilmington, Del., U.S.A.), and 80 μl of putative antagonist in assay buffer. Total count tubes received 20 μl of [3H]estradiol and 180 μl of assay buffer. After incubation overnight at 4° C., all but the total count tubes received 300 μl of dextran-coated charcoal suspension; tubes were agitated for 15 min and then centrifuged (1,000×g) for 15 min. Supernatants were decanted into counting vials, scintillant was added, and protein-bound tritium was determined by liquid scintillation counting.

## CC/C(=C(\c1ccccc1)c1ccc(OCCN(C)C)cc1)c1ccccc1 [tamoxifen]
Immature mouse uterus; i.p.
  uterotrophic effect of agent alone: stimulate the growth of the immature mouse uterus
[1]
  tumor volumes versus E2 alone group (Wilcoxon ranks-sum test): significantly different
  growth (tumor volume) of MCF-7 xenografts in E2-supplemented SCID mice: prevented growth; also recorded: no increase in tumor volume
[2]
  growth (tumor volume) of tamoxifen-resistant MCF-7 subline xenografts in E2-supplemented SCID mice: resistant to tamoxifen in vivo; also recorded: only minimally effective
[3]
  growth (tumor volume) of T47D xenografts in E2-supplemented SCID mice: prevented growth
[4]
  growth (tumor volume) of ER− MDA-MB-231 xenografts: Neither peptide nor tamoxifen were effective; also recorded: did not affect the growth
[5]
  users with uterine cancer as side effect: 0.2%

## Cyclo[EMTOVNOGQ]
[6]
  expression of estrogen receptor-α (ERα): downregulation of expression of estrogen receptor-α (ERα)
[7]
  proliferation of human breast cancer lines in immunocompromised mice: inhibit proliferation of human breast cancer lines

## EMTOVNOG (EMT[Hyp]VN[Hyp]G; listed as Homo sapiens) [SEQ ID NO: 4]
Immature mouse uterus; listed as Pep
  inhibition of the uterotrophic effect of estradiol: significantly different
  inhibition of the uterotrophic effect of tamoxifen: significantly different
Immature mouse uterus; listed as peptide
  inhibition of the uterotrophic effect of estradiol: inhibited the uterotrophic effect of tamoxifen as well as that of estradiol
  inhibition of the uterotrophic effect of tamoxifen: inhibited the uterotrophic effect of tamoxifen
Immature mouse uterus
  inhibition of the uterotrophic effect of tamoxifen: significantly inhibited tamoxifen's uterotrophic effect
Immature mouse uterus; i.p.
  uterotrophic effect of agent alone: no uterotrophic effect whatsoever
[1]
  tumor volumes versus E2 alone group (Wilcoxon ranks-sum test): significantly different
  growth (tumor volume) of MCF-7 xenografts in E2-supplemented SCID mice: prevented growth; also recorded: no significant increase in tumor volume
[2]; MCF-7 subline made resistant to tamoxifen, day 30, p<0.05
  tumor volumes versus E2 alone group (Wilcoxon Ranks Sum Test): significantly different
[2]
  growth (tumor volume) of tamoxifen-resistant MCF-7 subline xenografts in E2-supplemented SCID mice: completely prevented the xenograft growth; also recorded: completely stopped the growth
[3]; T47D, day 30, p<0.05
  tumor volumes versus E2 alone group (Wilcoxon Ranks Sum Test): significantly different
[3]
  growth (tumor volume) of T47D xenografts in E2-supplemented SCID mice: completely prevented tumor growth
[4]; MDA-MB-231, FIG. 11
  differences in tumor volumes between groups: no differences in tumor volumes
[4]
  growth (tumor volume) of ER− MDA-MB-231 xenografts: Neither peptide nor tamoxifen were effective; also recorded: had no effect on the growth
[8]; cell-free system
  competition/interference with estrogen binding to the estrogen receptor: does not interfere with the binding of [^3H]estradiol to the estrogen receptor
[8]; peptide concentration range of 10^−10M to 10^−5M
  interference with E2 binding to ER: no interference with E2 binding to ER

## EMTPVNPG (listed as Homo sapiens) [SEQ ID NO: 6]
Immature mouse uterus
  biological activity of stored inactive peptide after brief treatment with 4M urea: regenerated by 4M urea

## QMTPVNPG (listed as Homo sapiens) [SEQ ID NO: 2]
Immature mouse uterus
  biological activity of stored inactive peptide after brief treatment with 4M urea: restored its biological activity
Immature mouse uterus; Stored over 1 year (lyophilized, −20° C.), 1 μg per mouse i.p.
  % Inhibition of E2-Stimulated Growth of Immature Mouse Uterus ± SE: 0 ± 2%
Immature mouse uterus; higher molecular weight fraction (FIG. 2b, left side of peak)
  biological activity of gel filtration fraction of aged peptide: biologically inactive
Immature mouse uterus; i.p., FIG. 1a
  optimal dose for inhibition of estrogen-stimulated growth of mouse uterus: 1 μg/mouse
Immature mouse uterus; lower molecular weight fraction (FIG. 2b, right side of peak)
  biological activity of gel filtration fraction of aged peptide: active
Immature mouse uterus; stored at −20° C. in the lyophilized state, 1 μg per mouse, FIG. 1b
  anti-estrotrophic activity as a function of storage time (shelf-life): diminished to insignificant levels after five weeks of storage
Immature mouse uterus; stored in the lyophilized state at −20° C. for over one year
  biological activity of aged peptide: completely biologically inactive
